Measured values taken from PMC5046141, “Discovery of Isoquinolinoquinazolinones as a Novel Class of Potent PPARγ Antagonists with Anti-adipogenic Effects” (Scientific Reports, 2016).

Target: T1, R288G mutant PPARγ2 (Mus musculus, UniProt P37238, R316G)
T1 sequence (P37238 1-505 R316G): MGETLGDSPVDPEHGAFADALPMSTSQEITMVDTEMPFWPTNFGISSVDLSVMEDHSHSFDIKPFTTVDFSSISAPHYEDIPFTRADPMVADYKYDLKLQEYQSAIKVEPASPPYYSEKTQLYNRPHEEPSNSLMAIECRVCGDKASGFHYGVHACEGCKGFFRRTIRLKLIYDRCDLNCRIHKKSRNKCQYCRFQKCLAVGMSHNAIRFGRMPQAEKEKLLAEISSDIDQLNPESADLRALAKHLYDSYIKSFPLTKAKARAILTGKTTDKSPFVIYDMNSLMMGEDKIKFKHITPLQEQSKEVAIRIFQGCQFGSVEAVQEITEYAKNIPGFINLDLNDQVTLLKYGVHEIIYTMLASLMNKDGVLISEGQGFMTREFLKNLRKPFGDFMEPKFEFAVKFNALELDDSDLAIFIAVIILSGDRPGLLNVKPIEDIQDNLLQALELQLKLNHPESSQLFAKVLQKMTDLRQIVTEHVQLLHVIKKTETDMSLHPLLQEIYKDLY
T1 sequence (P28700 1-467 partner): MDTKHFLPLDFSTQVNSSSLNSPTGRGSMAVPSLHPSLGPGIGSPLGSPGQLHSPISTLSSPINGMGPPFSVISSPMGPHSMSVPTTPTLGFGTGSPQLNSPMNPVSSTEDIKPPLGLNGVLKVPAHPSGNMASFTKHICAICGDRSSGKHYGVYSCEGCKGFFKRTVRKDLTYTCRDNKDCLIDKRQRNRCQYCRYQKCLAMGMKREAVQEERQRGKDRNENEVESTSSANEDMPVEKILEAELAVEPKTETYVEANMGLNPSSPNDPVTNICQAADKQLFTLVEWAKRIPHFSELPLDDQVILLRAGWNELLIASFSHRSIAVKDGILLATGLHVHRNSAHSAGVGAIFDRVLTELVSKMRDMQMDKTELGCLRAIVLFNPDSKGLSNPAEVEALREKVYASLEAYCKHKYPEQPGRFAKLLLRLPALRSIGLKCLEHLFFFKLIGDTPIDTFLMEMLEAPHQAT
Assay: PPRE-Luc reporter assay with R288G mutant PPARγ2 in 3T3-L1 cells
Settings: 5 μM, 12 h

## COc1cc2cc3n(c(=O)c2cc1OC)CNc1cc(Cl)ccc1-3 [Compound 8o, 3-Chloro-10,11-dimethoxy-5H-isoquinolino[2,3-c]quinazolin-8(6H)-one]
  effect of Arg288 to Gly substitution on the compound's inhibition of PPARγ2 activity: abolished the inhibitory effect
